# According to patent US20120202856A1, “SUBSTITUTED BENZIMDAZOLE DERIVATIVES USEFUL AS TRPM8 RECEPTOR MODULATORS” (priority 2011, published 2012):
# Several values for one entry are separate records, joined by “and”; a condition that tells them apart may be missing. Equal entries are not always repeated. Structures can show the parent of a compound that is named as a salt. Where two headings read alike, the source gives them in different places.
# What was measured:
# canine TRPM8 = target: T1, canine TRPM8 (Canis lupus familiaris, UniProt Q1A7N1); assay: In Vitro Canine TRPM8 Functional Assay (intracellular Ca2+ fluorescence, icilin activation, HEK293 cells); format: cell-based; settings: for IC50: HEK293 cells expressing canine TRPM8, icilin activation, individually measured values (batches/salt forms), read-out: IC50 (nM), in vitro TRP M8 Activity; for % Inh (%) @0.2 μM, in vitro TRP M8 Activity: 0.2 μM test compound; for % Inh (%) @0.2 μM, in vitro TRP M8 Activity / inhibition at 0.2 µM: individually measured values
# T1 construct: expressed in transfected cells
# T1 sequence (Q1A7N1 1-1104): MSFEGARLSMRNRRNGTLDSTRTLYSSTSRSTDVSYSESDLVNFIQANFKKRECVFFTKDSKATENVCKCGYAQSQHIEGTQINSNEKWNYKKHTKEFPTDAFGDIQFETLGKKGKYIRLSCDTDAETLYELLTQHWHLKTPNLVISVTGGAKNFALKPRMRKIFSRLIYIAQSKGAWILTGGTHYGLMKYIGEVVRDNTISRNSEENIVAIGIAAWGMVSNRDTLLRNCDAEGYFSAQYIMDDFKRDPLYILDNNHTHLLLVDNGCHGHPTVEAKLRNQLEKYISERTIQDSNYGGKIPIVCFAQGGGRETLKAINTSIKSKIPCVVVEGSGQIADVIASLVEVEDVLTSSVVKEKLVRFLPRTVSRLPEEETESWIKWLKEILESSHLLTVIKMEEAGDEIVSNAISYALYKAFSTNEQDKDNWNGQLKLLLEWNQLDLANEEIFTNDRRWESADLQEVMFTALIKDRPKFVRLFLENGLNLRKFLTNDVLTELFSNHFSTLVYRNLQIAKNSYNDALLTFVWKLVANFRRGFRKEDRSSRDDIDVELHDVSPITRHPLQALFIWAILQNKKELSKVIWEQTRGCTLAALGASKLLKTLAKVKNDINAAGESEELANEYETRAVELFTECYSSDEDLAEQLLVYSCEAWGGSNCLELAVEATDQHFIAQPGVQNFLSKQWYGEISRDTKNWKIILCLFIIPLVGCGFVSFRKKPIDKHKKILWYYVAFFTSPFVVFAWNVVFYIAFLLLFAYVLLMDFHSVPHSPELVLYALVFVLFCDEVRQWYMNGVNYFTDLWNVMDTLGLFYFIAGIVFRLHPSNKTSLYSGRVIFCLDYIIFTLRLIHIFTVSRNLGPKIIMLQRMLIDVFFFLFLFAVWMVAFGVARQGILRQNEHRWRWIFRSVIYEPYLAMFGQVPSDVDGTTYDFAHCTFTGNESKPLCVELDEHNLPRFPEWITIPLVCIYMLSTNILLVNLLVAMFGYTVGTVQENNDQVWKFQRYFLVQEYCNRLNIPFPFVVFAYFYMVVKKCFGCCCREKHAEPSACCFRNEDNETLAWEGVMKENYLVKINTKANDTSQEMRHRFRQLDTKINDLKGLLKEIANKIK
# In short: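 HEK293 cells expressing canine TRPM8 loaded with Calcium 3 dye, then stimulated with icilin; intracellular Ca2+ rise read on FLIPR or FDSS. Peak fluorescence minus basal normalized to percent maximal response; IC50 from sigmoidal nonlinear regression of quadruplicate wells.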
# [1] = test system: icilin-induced “wet-dog” shakes (WDS); assay: Inhibition of Icilin-Induced “Wet-Dog” Shakes in Rats; format: in vivo, Sprague Dawley rats; settings: po; for inhibition in vivo at 10 mg/kg / inhibition in vivo at 3 mg/kg: read-out: Icilin % Inhibition @1.5 hrs
# Procedure: The test compound was administered in 10% hydroxypropyl-β-cyclodextrin (HP-13-CD), p.o., 60 min before icilin.
# % Inhibition=[1−(test compound WDS count/vehicle WDS count)]×100.
# [2] = test system: CCI-induced cold hypersensitivity; assay: Chronic Constriction Injury (CCI)-Induced Model of Neuropathic Pain, Acetone-Induced Hypersensitivity; format: in vivo, Sprague-Dawley rats; settings: rat, p.o., acetone-induced withdrawals, 2 h after administration
# From the text: Male Sprague-Dawley rats (225-450 g; n=5-8/treatment) were used to evaluate the ability of test compounds to reverse CCl-induced cold hypersensitivity. Four loose ligatures of 4-0 chromic gut were surgically placed around the left sciatic nerve under inhalation anesthesia as described by Bennett et al. (BENNETT, G. J., et al., “A peripheral mononeuropathy in rat that produces disorder of pain sensation like those seen in man”, Pain, 1988, pp 87-107, Vol. 33(1)). Fourteen to 35 days following CCl surgery, subjects were placed in elevated observation chambers containing wire mesh floors, and five applications of acetone (0.05 mL/application separated by approximately 5 min) were spritzed onto the plantar surface of the paw using a multidose syringe. An abrupt withdrawal or lifting of the paw was considered a positive response. The number of positive responses was recorded for each rat over the five trials. […] The number of withdrawals was re-determined at 2 hr after compound administration. […] Results are presented below as a percent inhibition of […], which was calculated for each subject and then averaged by treatment as follows: […]
# rats = settings: cited from earlier work
# humans = settings: 5-10 mg ingested orally; cited from earlier work
# [3] = rat, p.o., dose 10 mg/kg, 1.5 hrs
# [4] = HEK293, read-out: % Inh (%) @0.2 μM, in vitro TRP M8 Activity, 0.2 μM test compound
# [5] = HEK293, 0.2 μM test compound, read-out: % Inh (%) @0.2 μM, in vitro TRP M8 Activity
# [6] = rat, p.o., dose 3 mg/kg, 1.5 hrs
compound,measurement,setting,value
"Cl.Cn1nc(C(C)(C)C)c(Cl)c1-c1nc2cc(-c3c(F)cccc3F)ccc2[nH]1 [Compound 85, 2-(5-tert-Butyl-4-chloro-2-methyl-2H-pyrazol-3-yl)-5-(2,6-difluoro-phenyl)-1H-benzimidazole hydrochloride]",IC50,canine TRPM8,3.7 nM and 4.6 nM and 3.8 nM
same,inhibition in vivo at 10 mg/kg,[1]; [3],96.4%
same,CCI % Inhibition @ 2 h,[2],34.3%
"Cc1c(C(C)(C)C)nn(C)c1-c1nc2cc(-c3c(F)cccc3C(F)(F)F)ccc2[nH]1 [Compound 78, 2-(5-tert-Butyl-2,4-dimethyl-2H-pyrazol-3-yl)-5-(2-fluoro-6-trifluoromethyl-phenyl)-1H-benzimidazole sodium salt]",IC50,canine TRPM8,1 nM
same,inhibition in vivo at 10 mg/kg,"[1]; Rattus norvegicus, 1.5 h",99.3%
"Cn1nc(C(C)(C)C)cc1-c1nc2cc(-c3c(F)cccc3F)ccc2[nH]1 [Compound 58, 2-(5-tert-Butyl-2-methyl-2H-pyrazol-3-yl)-5-(2,6-difluoro-phenyl)-1H-benzimidazole trifluoroacetic acid salt]",IC50,canine TRPM8,14 nM and 17.3 nM
same,inhibition in vivo at 5.6 mg/kg,"[1]; rat, 1.5 hrs",11.2%
"CC(C)c1cc(-c2nc3cc(-c4ccccc4C(F)(F)F)ccc3[nH]2)on1 [Compound 3, 2-(3-Isopropylisoxazol-5-yl)-5-(2-trifluoromethylphenyl)-1H-benzimidazole sodium salt]",IC50,canine TRPM8,22 nM and 24 nM (2×) and 29 nM
same,inhibition in vivo at 30 mg/kg,"[1]; rat, 1.5 hrs",48.3%
"Cn1nc(C(C)(C)C)c(Cl)c1-c1nc2cc(-c3c(F)cccc3C(F)(F)F)ccc2[nH]1 [Compound 86, 2-(5-tert-Butyl-4-chloro-2-methyl-2H-pyrazol-3-yl)-5-(2-fluoro-6-trifluoromethyl-phenyl)-1H-benzimidazole hydrochloride]",IC50,canine TRPM8,3.1 nM and 7.7 nM
same,inhibition in vivo at 10 mg/kg,[1]; [3],98.7%
"Cn1nc(C(C)(C)C)c(Cl)c1-c1nc2cc(-c3c(F)cccc3C(F)(F)F)cc(Cl)c2[nH]1.[Na] [Compound 113, 2-(5-tert-Butyl-4-chloro-2-methyl-2H-pyrazol-3-yl)-7-chloro-5-(2-fluoro-6-trifluoromethyl-phenyl)-1H-benzimidazole sodium salt]","% Inh (%) @0.2 μM, in vitro TRP M8 Activity","canine TRPM8; sodium salt, 0.2 µM",100%
same,inhibition at 0.2 µM,canine TRPM8; [4],99%
same,IC50,canine TRPM8,2.4 nM and 3.5 nM and 4.4 nM
same,inhibition in vivo at 3 mg/kg,"[1]; Rattus norvegicus, 1.5 h",2.8%
"Cl.Cn1nc(C(C)(C)C)c(Cl)c1-c1nc2cc(-c3ccccc3F)ccc2[nH]1 [Compound 90, 2-(5-tert-Butyl-4-chloro-2-methyl-2H-pyrazol-3-yl)-5-(2-fluoro-phenyl)-1H-benzimidazole hydrochloride]",IC50,canine TRPM8,7.4 nM and 5 nM and 9.3 nM
same,inhibition in vivo at 5.6 mg/kg,"[1]; rat, 1.5 hrs",52.7%
same,CCI % Inhibition @ 2 h,[2],22.5%
"Cc1c(C(C)(C)C)nn(C)c1-c1nc2cc(-c3ccccc3F)cc(Cl)c2[nH]1 [Compound 133, 2-(5-tert-Butyl-2,4-dimethyl-2H-pyrazol-3-yl)-7-chloro-5-(2-fluoro-phenyl)-1H-benzimidazole hydrochloride]",inhibition at 0.2 µM,canine TRPM8; [5],99%
same,IC50,canine TRPM8,12.6 nM and 10.2 nM
same,inhibition in vivo at 3 mg/kg,[1]; [6],4.6%
"CC(C)(C)c1cc(-c2nc3cc(-c4ccccc4C(F)(F)F)ccc3[nH]2)on1 [Compound 9, 2-(3-tert-Butylisoxazol-5-yl)-5-(2-trifluoromethylphenyl)-1H-benzimidazole sodium salt]",IC50,canine TRPM8,17.4 nM and 12 nM
same,inhibition in vivo at 10 mg/kg,[1]; [3],66.4%
"Cc1c(C(C)(C)C)nn(C)c1-c1nc2cc(-c3ccccc3C(F)(F)F)cc(C(F)(F)F)c2[nH]1 [Compound 120, 2-(5-tert-Butyl-2,4-dimethyl-2H-pyrazol-3-yl)-7-trifluoromethyl-5-(2-trifluoromethyl-phenyl)-1H-benzimidazole hydrochloride]",IC50,canine TRPM8,2.1 nM
same,inhibition in vivo at 3 mg/kg,[1]; [6],44.8%
"Cc1cc(-c2ccccc2C(F)(F)F)cc2nc(-c3cc(C(C)(C)C)nn3C)[nH]c12 [Compound 79, 2-(5-tert-Butyl-2-methyl-2H-pyrazol-3-yl)-7-methyl-5-(2-trifluoromethylphenyl)-1H-benzimidazole hydrochloride]",IC50,canine TRPM8,5 nM and 14.4 nM
same,inhibition in vivo at 5.6 mg/kg,"[1]; rat, 1.5 hrs",20.1%
"CC(C)(C)c1cc(-c2nc3cc(-c4ccccc4OC(F)(F)F)ccc3[nH]2)on1.[Na] [Compound 10, 2-(3-tert-Butylisoxazol-5-yl)-5-(2-trifluoromethoxyphenyl)-1H-benzimidazole sodium salt]",IC50,canine TRPM8,12 nM and 15 nM and 10 nM
same,inhibition in vivo at 30 mg/kg,"[1]; rat, 1.5 hrs",97.3%
same,CCI % Inhibition @ 2 h,[2],57.1%
"Cc1c(C(C)(C)C)nn(C)c1-c1nc2cc(-c3c(F)cccc3F)cc(Cl)c2[nH]1 [Compound 136, 2-(5-tert-Butyl-2,4-dimethyl-2H-pyrazol-3-yl)-7-chloro-5-(2,6-difluoro-phenyl)-1H-benzimidazole hydrochloride]",inhibition at 0.2 µM,canine TRPM8; [5],100%
same,IC50,canine TRPM8,8.2 nM and 9 nM
same,inhibition in vivo at 3 mg/kg,[1]; [6],61.6%
"Cn1nc(C(C)(C)C)c(Cl)c1-c1nc2cc(-c3c(F)cccc3C(F)(F)F)cc(C(F)(F)F)c2[nH]1 [Compound 125, 2-(5-tert-Butyl-4-chloro-2-methyl-2H-pyrazol-3-yl)-5-(2-fluoro-6-trifluoromethyl-phenyl)-7-trifluoromethyl-1H-benzimidazole sodium salt]",inhibition at 0.2 µM,canine TRPM8; [4],100%
same,IC50,canine TRPM8,3.2 nM and 1.7 nM
same,inhibition in vivo at 3 mg/kg,"[1]; Rattus norvegicus, 1.5 h",24.6%
"Cc1c(C(C)(C)C)nn(C)c1-c1nc2cc(-c3ccccc3C(F)(F)F)ccc2[nH]1 [Compound 76, 2-(5-tert-Butyl-2,4-dimethyl-2H-pyrazol-3-yl)-5-(2-trifluoromethylphenyl)-1H-benzimidazole sodium salt]",IC50,canine TRPM8,6 nM
same,inhibition in vivo at 10 mg/kg,"[1]; Rattus norvegicus, 1.5 h",98.6%
O=C1NC(c2cccc([N+](=O)[O-])c2)=CCN1c1ccccc1O [Icilin],behaviour caused in initial in vivo testing,rats,“wet-dog” shakes
same,"coldness in the mouth, pharynx and chest lasting",humans,30 to 60 min
"CCn1nc(C(C)(C)C)cc1-c1nc2cc(-c3ccccc3C(F)(F)F)ccc2[nH]1 [Compound 44, 2-(5-tert-Butyl-2-ethyl-2H-pyrazol-3-yl)-5-(2-trifluoromethylphenyl)-1H-benzimidazole sodium salt]",IC50,canine TRPM8,15.8 nM
same,inhibition in vivo at 10 mg/kg,"[1]; Rattus norvegicus, 1.5 h",30%
"Cn1nc(C(C)(C)C)c(C#N)c1-c1nc2cc(-c3ccccc3C(F)(F)F)cc(Cl)c2[nH]1 [Compound 169, 3-tert-Butyl-5-[7-chloro-5-(2-trifluoromethyl-phenyl)-1H-benzimidazol-2-yl]-1-methyl-1H-pyrazole-4-carbonitrile sodium salt]",inhibition at 0.2 µM,canine TRPM8; [5],100%
same,IC50,canine TRPM8,8 nM
same,inhibition in vivo at 3 mg/kg,[1]; [6],34%
"Cl.Cn1nc(C(C)(C)C)c(Cl)c1-c1nc2cc(-c3ccccc3OC(F)(F)F)cc(Cl)c2[nH]1 [Compound 117, 2-(5-tert-Butyl-4-chloro-2-methyl-2H-pyrazol-3-yl)-7-chloro-5-(2-trifluoromethoxy-phenyl)-1H-benzimidazole hydrochloride]","% Inh (%) @0.2 μM, in vitro TRP M8 Activity",canine TRPM8,"100, 100%"
same,inhibition at 0.2 µM,canine TRPM8; [5],100%
same,IC50,canine TRPM8,7 nM and 11.3 nM and 8.4 nM
same,inhibition in vivo at 3 mg/kg,[1]; [6],7.7%
"Cn1nc(C(C)(C)C)c(C#N)c1-c1nc2cc(-c3ccccc3Cl)cc(Cl)c2[nH]1.[Na] [Compound 168, 3-tert-Butyl-5-[7-chloro-5-(2-chloro-phenyl)-1H-benzimidazol-2-yl]-1-methyl-1H-pyrazole-4-carbonitrile sodium salt]","% Inh (%) @0.2 μM, in vitro TRP M8 Activity","canine TRPM8; sodium salt, 0.2 µM",101% and 100% (2×)
same,inhibition at 0.2 µM,canine TRPM8; [5],99%
same,IC50,canine TRPM8,2.3 nM and 7 nM and 4.3 nM and 4.7 nM and 3.2 nM
same,inhibition in vivo at 3 mg/kg,[1]; [6],86%
same,CCI % Inhibition @ 2 h,[2],74.3%
